Here are results for one molecule from patent publication US11207289B2, “Use of benzofuran lignans to induce IL-25 expression and suppress mammary tumor metastasis” (ACADEMIA SINICA, priority 2016, dated 2021).

What is called viability is a read-out of living cells in per cent, often relative to untreated cells. Low values mean more harm to the cells, high ones less harm to the cells.

Data set [1] is described as follows: MTT assay, cytotoxic effect on M10. Particulars: human, M10 cells (normal human mammary epithelial cell line). The data set is classed as cell-based. As to the method: M10, WI38, SKBR3, and MDA-MB-231 cells (1×10^5 cells/ml) dispensed in 96-well plates were incubated with vehicle or test compounds (Q2-3) for 24 h or 72 h in corresponding basal medium in a 5% CO2 incubator. To evaluate the effect of secreted IL-25 from Q2-3-treated fibroblasts on growth activity of mammary tumor cells, 4T1 and MDA-MB-231 cells (1×10^4 cells/ml) dispensed in 96-well plates were incubated with control medium or different fibroblast conditioned media (200 μl/ml) which was changed daily for 5 days. All treatments were performed in triplicate cell cultures. The growth activity of cells was assayed using a 3-(4, 5-dimethythiazol-2-yl)-2, 5-diphenyl tetrazolium bromide (MTT; Sigma-Aldrich) colorimetric method. The absorbance at 570 nm (A570) was measured using a multiwall scanning spectrophotometer.
FIG. 1 is a schematic depiction of cytotoxic effects of dihydrobenzofuran lignan (Q2-3) on breast tumor cells. (a): Scheme for synthesis of Q2-3 (methyl (E)-3-[2-(3,4-dihydroxyphenyl)-7-hydroxy-3-methoxycarbonyl-2,3-dihydro-1-benzofuran-5yl]prop-2-enoate) from two caffeic acid methyl ester molecules. […] The beginning cytotoxic dosage of Q2-3 was detected at 0.3 μM, with >50% kill rate on SKBR3 and MDA-MB-231 cells. […]
(In general: Tetrazolium assays rely on reduction of a dye to a coloured formazan, in cell work by metabolically active cells.)

The test system of data set [2] is myeloid derived suppressor cells (MDSCs). Briefly: Flow cytometry of MDSCs in lung tissue, 4T1 tumor resection model. The data set is classed as in vivo, mice. Particulars: 10 μg/kg, 3 weeks post tumor resection. As to the method:
BALB/c mice were subcutaneously injected with 4T1-Luc2 cells (5×10^5/100 μl PBS/mouse) into the fourth mammary fat pad under isoflurane anesthesia. Tumor growth was monitored by measuring the tumor volume according to the formula: volume=length×(width)^2/2. After tumors were established (180-200 mm^3) on day 14, test mice were divided into different groups (8 mice/group) and subjected to different treatments. At 15 days post tumor cell implantation, primary 4T1 tumors in situ were surgically removed by a tumor resection process. For drug treatment, mice were administered with different agents, including vehicle-control (PBS), mouse IL-25 protein (10 μg/kg, ProSpec, Vineland, N.J.), Q2-3 (2, 20 or 100 μg/kg) or docetaxel (2 mg/kg; Sigma-Aldrich), by intravenous injection for 3 weeks (3 injections/week) post tumor resection. […] Bioluminescence signals from the 4T1-luc2 tumor cells in test mice were analyzed using a non-invasive IVIS imaging system (Calipers, Hopkinton, Mass.) after intraperitoneal injection of 150 mg/kg D-luciferin (NanoLight technology, Pinetop, Ariz.). […]
Suppressive effects of Q2-3 on in vivo expansion of MDSC populations were also evaluated for both the monocytic (CD11b^+Ly6C^+) and granulocytic (CD11b^+Ly6G^+) subsets of MDSCs. The populations of these two MDSC cell types in lung tissues of test mice were analyzed and compared at 3 weeks post tumor resection.
On the technique in general: Flow cytometry measures light scatter and fluorescence of single cells or particles in a stream.

On to `COC(=O)/C=C/c1cc(O)c2c(c1)C(C(=O)OC)C(c1ccc(O)c(O)c1)O2` (stereo not drawn) [Q2-3, methyl(E)-3-[2-(3,4-dihydroxyphenyl)-7-hydroxy-3-methoxycarbonyl-2,3-dihydro-1-benzofuran-5yl]-prop-2-enoate], for which the viability at 2 µM in data set [1] was at least 80%. Also, the “monocytic CD11b+Ly6C+ MDSC population in lung tissue” value in data set [2] (PBS control 0.9%) is listed as 0.4%. In addition, the “granulocytic CD11b+Ly6G+ MDSC population in lung tissue” value in data set [2] (PBS control 42.9%) is on record as 12.5%.
